Measurements as given in patent US10927096B2, “Ester substituted ion channel blockers and methods for use” (Nocion Therapeutics, Inc., priority 2019, dated 2021).

Key:
NaV1.7 = biological target: T1, NaV1.7 (Homo sapiens, UniProt Q15858); test: Whole cell patch clamp, internal block of NaV1.7 current; type: cell-based; conditions: % inhibition at 1 μM test concentration, compound in internal solution, manual whole cell patch clamp
T1 construct: expressed in transfected cells; host or cells: HEK293, tetracycline-inducible
T1 sequence (Q15858 whole entry): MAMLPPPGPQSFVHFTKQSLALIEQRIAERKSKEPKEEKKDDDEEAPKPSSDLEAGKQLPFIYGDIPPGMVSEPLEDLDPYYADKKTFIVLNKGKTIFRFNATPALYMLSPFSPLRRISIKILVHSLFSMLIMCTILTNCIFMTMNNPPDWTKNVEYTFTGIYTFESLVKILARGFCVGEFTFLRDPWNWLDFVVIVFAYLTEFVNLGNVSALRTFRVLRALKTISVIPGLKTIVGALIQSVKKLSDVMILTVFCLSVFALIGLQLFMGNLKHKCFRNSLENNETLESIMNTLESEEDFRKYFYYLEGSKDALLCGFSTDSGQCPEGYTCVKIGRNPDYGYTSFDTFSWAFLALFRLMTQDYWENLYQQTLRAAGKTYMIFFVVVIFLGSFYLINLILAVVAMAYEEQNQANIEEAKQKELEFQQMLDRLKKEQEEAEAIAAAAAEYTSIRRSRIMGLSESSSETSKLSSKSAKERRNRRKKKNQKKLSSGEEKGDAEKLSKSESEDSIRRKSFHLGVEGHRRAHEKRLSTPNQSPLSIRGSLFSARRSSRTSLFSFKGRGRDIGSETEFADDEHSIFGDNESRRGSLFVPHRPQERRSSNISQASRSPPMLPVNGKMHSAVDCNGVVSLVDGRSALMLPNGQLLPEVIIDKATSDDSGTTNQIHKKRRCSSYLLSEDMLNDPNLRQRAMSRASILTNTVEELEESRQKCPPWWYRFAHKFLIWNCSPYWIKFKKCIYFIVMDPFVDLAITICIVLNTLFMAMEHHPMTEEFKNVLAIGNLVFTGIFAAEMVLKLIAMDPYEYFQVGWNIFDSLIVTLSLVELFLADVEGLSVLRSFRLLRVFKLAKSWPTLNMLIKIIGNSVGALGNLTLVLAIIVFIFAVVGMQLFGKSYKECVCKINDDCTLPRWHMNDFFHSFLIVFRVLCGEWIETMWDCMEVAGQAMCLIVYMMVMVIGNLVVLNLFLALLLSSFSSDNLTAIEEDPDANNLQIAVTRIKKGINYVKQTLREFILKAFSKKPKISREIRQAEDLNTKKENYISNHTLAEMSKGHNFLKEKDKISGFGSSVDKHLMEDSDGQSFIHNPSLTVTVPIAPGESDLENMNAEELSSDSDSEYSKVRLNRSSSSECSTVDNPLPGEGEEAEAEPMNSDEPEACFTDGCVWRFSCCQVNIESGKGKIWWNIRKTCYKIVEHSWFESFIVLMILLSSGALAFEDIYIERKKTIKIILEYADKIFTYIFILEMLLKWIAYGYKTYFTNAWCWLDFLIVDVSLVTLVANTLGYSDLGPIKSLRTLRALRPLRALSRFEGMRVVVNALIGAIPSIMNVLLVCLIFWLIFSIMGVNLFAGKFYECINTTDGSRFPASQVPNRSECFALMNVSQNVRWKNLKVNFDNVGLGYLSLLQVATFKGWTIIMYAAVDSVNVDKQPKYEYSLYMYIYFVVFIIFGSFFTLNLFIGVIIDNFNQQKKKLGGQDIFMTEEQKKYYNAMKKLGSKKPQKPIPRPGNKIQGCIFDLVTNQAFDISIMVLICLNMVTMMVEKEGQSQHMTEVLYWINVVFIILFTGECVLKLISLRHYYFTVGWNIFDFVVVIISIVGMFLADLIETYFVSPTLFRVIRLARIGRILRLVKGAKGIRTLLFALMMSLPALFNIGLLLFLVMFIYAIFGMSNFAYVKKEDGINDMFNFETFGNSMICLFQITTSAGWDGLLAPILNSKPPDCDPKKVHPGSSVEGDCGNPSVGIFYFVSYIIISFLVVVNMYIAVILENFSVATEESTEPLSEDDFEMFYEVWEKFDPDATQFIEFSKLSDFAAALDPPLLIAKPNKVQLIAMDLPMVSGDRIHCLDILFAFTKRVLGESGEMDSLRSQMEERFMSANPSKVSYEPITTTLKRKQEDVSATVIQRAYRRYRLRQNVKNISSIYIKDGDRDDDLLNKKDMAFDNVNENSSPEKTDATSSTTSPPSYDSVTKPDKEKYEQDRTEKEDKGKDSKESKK
In short: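 Tetracycline-induced cells recorded 18-24 h post-induction at room temperature, compound dissolved in CsCl internal solution (pH 7.2), Ringer bath pH 7.4. From −100 mV holding, 10 ms steps to −20 mV; baseline at 30 s intervals, then four 30 s trains at 5 Hz. Fraction current remaining = last-train peak/baseline, versus control-internal cells.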

[1] = PAMPA membrane permeability assay; type: physicochemical; conditions: pH 7.4 buffer, GIT lipid, 4 hours incubation
In short: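 Passive diffusion across a GIT-lipid-painted artificial membrane, with compounds at 50 uM in pH 7.4 buffer in the donor well and 4 h incubation. Donor, acceptor and reference solutions were quantified by UV spectra, and permeability coefficients (10^−6 cm/s) were derived from AUCs. Results are binned as + (<0.1), ++ (0.1-2.0), +++ (2.0-10.0), ++++ (>10.0).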

| Structure (SMILES) | NaV1.7 Intracellular Inhibition (NaV1.7) | PAMPA (10^−6 cm/s) [1] | inhibition at 1 µM (NaV1.7; read-out: NaV1.7 Intracellular Inhibition) |
| --- | --- | --- | --- |
| CC[N+]1(CC(=O)Nc2c(C)cccc2C(=O)OC)CCCC(c2ccccc2)C1 (mixture of isomers) [Compound 65] | ++++ (>90%) | + (<0.1 10^−6 cm/s) | – |
| CC[N+]1(CC(=O)Nc2c(C)cccc2C(=O)OC)CCCC(C(=O)NC)C1.[I-] (centres unmarked) [Compound 46] | + (<30%) | + (<0.1 10^−6 cm/s) | – |
| COC(=O)c1cccc(C)c1NC(=O)C[n+]1cccn1C1CCCCC1.[Br-] [Compound 69] | ++ (70-30%) | ++ (0.1-2.0 10^−6 cm/s) | – |
| CC[N+]1(CC(=O)Nc2c(C)cccc2C(=O)OC)CCCC(C(=O)N2CCCCC2)C1.[I-] (centres unmarked) [Compound 45] | ++ (70-30%) | + (<0.1 10^−6 cm/s) | – |
| Cc1cccc(C(=O)OC(C)(C)C)c1NC(=O)C[n+]1cccc(-c2ccccc2)c1.[Br-] [Compound 71] | ++ (70-30%) | + (<0.1 10^−6 cm/s) | – |
| COC(=O)c1cccc(C)c1NC(=O)C[N+]1(Cc2ccccc2)CCCC(C(=O)NC(C)C)C1.[Br-] (centres unmarked) [Compound 32] | ++ (70-30%) | + (<0.1 10^−6 cm/s) | – |
| COC(=O)c1cccc(C)c1NC(=O)C[N+]1(CC(=O)N(C)C)CCCC(c2ccccc2)C1.O=C([O-])C(F)(F)F (centres unmarked) [Compound 60] | ++ (70-30%) | + (<0.1 10^−6 cm/s) | – |
| CCc1cccc(C[N+]2(C(CC)C(=O)Nc3c(C)cccc3C(=O)OC)CCCCC2)c1.O=C[O-] (centres unmarked) [Compound 58] | +++ (90-70%) | + (<0.1 10^−6 cm/s) | – |
| CCOC(=O)C[N+]1(CC(=O)Nc2c(C)cccc2C(=O)OC)CCCC(c2ccccc2)C1.O=C([O-])C(F)(F)F (centres unmarked) [Compound 63] | +++ (90-70%) | +++ (2.0-10.010^−6 cm/s) | – |
| Cc1cccc(C(=O)OC(C)C)c1NC(=O)C[N+]1(Cc2ccccc2)CCCCCC1.[Br-] [Compound 7] | ++++ (>90%) | + (<0.1 10^−6 cm/s) | – |
| CCC(C(=O)Nc1c(C)cccc1C(=O)OC)[N+]1(Cc2ccccc2)CCCCC1 (centres unmarked) [Compound 57] | – | + (<0.1 10^−6 cm/s) | 30 to 70% |
| COC(=O)c1cccc(C)c1NC(=O)C[N+]1(Cc2ccccc2)CCCC(C(=O)NCC(C)C)C1.[Br-] (centres unmarked) [Compound 36] | ++ (70-30%) | +++ (2.0-10.010^−6 cm/s) | – |
| Cc1cccc(C(=O)OC(C)(C)C)c1NC(=O)C[n+]1cccn1C1CCCCC1.[Br-] [Compound 72] | ++ (70-30%) | + (<0.1 10^−6 cm/s) | – |
